Our source for the Ki and EC50 values is ChEMBL document CHEMBL1139195, “Further studies of tyrosine surrogates in opioid receptor peptide ligands” (Bioorg Med Chem Lett, 2007).

In assay [1] the target is Kappa-type opioid receptor (Homo sapiens, UniProt P41145).
The target in assay [2] is T1, Mu-type opioid receptor (Homo sapiens, UniProt P35372).
Assay [3] deals with T2, Delta-type opioid receptor (Homo sapiens, UniProt P41143).
Assay [4] concerns the target T2, Delta-type opioid receptor. It is filed as functional.
In assay [5] the target is T1, Mu-type opioid receptor. Format: functional.

*1 amine or outer side, *2 acyl side, *3 side chain or, on linkers, in order; H or OH if unused. Where a SMILES comes first, the peptide text is derived from it. [ ]: non-standard residue; d: D form. Ala(2-NH2-benzothiazol-6-yl) = Nc1nc2ccc(C[C@H](N)C(=O)O)cc2s1; Phe(2,6-Me2,4-CONH2) = Cc1cc(C(N)=O)cc(C)c1C[C@H](N)C(=O)O; Phe(3-CONH2) = NC(=O)c1cccc(C[C@H](N)C(=O)O)c1; Phe(4-CONH2) = NC(=O)c1ccc(C[C@H](N)C(=O)O)cc1; X1 = O=C([C@H](Cc1cc[n+]([O-])cc1)N[*:1])[*:2] Some results are limits rather than exact numbers.

As usually defined, the Ki is a dissociation constant, usually derived from enzyme kinetics or from competition with a known ligand. The term EC50 denotes the concentration at which the effect is half-maximal.

Chain of Kappa-type opioid receptor (P41145 whole entry): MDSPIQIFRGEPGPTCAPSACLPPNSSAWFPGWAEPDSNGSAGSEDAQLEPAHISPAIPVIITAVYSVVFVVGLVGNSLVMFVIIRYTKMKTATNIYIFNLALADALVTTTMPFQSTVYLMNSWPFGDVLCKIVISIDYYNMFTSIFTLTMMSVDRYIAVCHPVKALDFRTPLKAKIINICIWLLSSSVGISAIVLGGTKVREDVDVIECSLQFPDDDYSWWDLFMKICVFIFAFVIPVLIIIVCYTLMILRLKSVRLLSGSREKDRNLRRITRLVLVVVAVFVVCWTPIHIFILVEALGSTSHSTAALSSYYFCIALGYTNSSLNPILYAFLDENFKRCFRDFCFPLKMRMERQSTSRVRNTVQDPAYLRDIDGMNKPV
T2 sequence (P41143 whole entry): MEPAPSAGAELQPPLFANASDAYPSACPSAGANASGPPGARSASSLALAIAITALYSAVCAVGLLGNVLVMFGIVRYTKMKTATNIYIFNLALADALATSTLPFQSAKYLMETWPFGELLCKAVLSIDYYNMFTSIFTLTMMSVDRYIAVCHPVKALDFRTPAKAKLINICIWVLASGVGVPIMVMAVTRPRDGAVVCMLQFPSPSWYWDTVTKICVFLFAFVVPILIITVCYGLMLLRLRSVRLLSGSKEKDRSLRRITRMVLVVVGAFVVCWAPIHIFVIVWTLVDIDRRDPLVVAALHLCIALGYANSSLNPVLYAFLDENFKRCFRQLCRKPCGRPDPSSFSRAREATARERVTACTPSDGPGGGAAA
T1 sequence (P35372 whole entry): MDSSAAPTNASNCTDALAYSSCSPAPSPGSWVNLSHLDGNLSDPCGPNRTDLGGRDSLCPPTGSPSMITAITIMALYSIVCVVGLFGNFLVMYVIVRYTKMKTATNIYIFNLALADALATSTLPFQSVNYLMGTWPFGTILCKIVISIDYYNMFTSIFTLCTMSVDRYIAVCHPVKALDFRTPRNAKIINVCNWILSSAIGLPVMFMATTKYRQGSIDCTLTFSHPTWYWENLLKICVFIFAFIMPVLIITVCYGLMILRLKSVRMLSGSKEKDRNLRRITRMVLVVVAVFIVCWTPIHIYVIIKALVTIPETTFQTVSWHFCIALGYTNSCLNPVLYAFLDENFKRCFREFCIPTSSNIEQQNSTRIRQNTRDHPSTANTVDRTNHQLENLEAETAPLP

Compound `CSCC[C@H](NC(=O)[C@H](Cc1ccccc1)NC(=O)CNC(=O)CNC(=O)[C@@H](N)Cc1ccc(O)cc1)C(=O)O` came in with an inhibition constant Ki in assay [1] of over 10 µM.

As for `CC1(C)SSC(C)(C)[C@@H](NC(=O)[C@@H](N)Cc2ccc(C(N)=O)cc2)C(=O)NCC(=O)N[C@@H](Cc2ccccc2)C(=O)N[C@H]1C(=O)O`, the inhibitory constant (Ki) in assay [2] is over 10 µM; in assay [3], 0.019 µM; in assay [1], over 10 µM. The compound further returned a 50% effective concentration (EC50) in assay [4] of 0.32 µM.

Take `CC(C)C[C@H](NC(=O)[C@H](Cc1ccccc1)NC(=O)CNC(=O)[C@@H](CO)NC(=O)[C@@H](N)Cc1ccc2nc(N)sc2c1)C(=O)N[C@H](C(=O)O)[C@@H](C)O`: the figures for the inhibitory constant (Ki) in assay [2], in assay [3] and in assay [1] were 0.64 µM, 0.0038 µM and over 10 µM, respectively. Further, the concentration for a half-maximal effect (EC50) in assay [4] was 0.097 µM.

For the compound `CSCC[C@H](NC(=O)[C@H](Cc1ccccc1)NC(=O)CNC(=O)[C@@H](C)NC(=O)[C@@H](N)Cc1ccc2nc(N)sc2c1)C(=O)O`, the Ki in assay [2] is 0.1 µM; in assay [3], 0.001 µM; in assay [1] it was over 10 µM. The results for the EC50 in assay [5] and in assay [4] were 0.35 µM and 0.024 µM, respectively.

In the case of `CC(C)C[C@@H](NC(=O)[C@H](Cc1ccccc1)NC(=O)CNC(=O)[C@@H](C)NC(=O)[C@@H](N)Cc1cccc(C(N)=O)c1)C(=O)O`, the inhibitory constant (Ki) is 0.56 µM in assay [2], 0.17 µM in assay [3] and over 10 µM in assay [1]. The compound also came in with an EC50 in assay [4] of 1.7 µM.

As to `CC(C)C[C@H](NC(=O)[C@H](Cc1ccccc1)NC(=O)CNC(=O)[C@@H](CO)NC(=O)[C@@H](N)Cc1cc[n+]([O-])cc1)C(=O)N[C@H](C(=O)O)[C@@H](C)O`, the Ki is over 10 µM in assay [2], 0.36 µM in assay [3] and over 10 µM in assay [1].

On to `CC(C)C[C@@H](NC(=O)[C@H](Cc1ccccc1)NC(=O)CNC(=O)[C@@H](C)NC(=O)[C@@H](N)Cc1ccc2nc(N)sc2c1)C(=O)O`, for which the Ki in assay [2] is 1.2 µM; in assay [3], 0.01 µM; in assay [1], over 10 µM. Besides, in assay [4], the 50% effective concentration (EC50) was 0.15 µM.

As to `CC(C)C[C@@H](NC(=O)[C@H](Cc1ccccc1)NC(=O)CNC(=O)[C@@H](C)NC(=O)[C@@H](N)Cc1ccc(C(=O)O)cc1)C(=O)O`, the Ki in assay [2] was over 10 µM; in assay [3], 1.1 µM; in assay [1] it was over 10 µM.

For the compound `CC(C)C[C@@H](NC(=O)[C@H](Cc1ccccc1)NC(=O)CNC(=O)[C@@H](C)NC(=O)[C@@H](N)Cc1ccc(N)cc1)C(=O)O`, the Ki in assay [2] was 1.4 µM; in assay [3] it was 0.019 µM; in assay [1], over 10 µM. Further, the EC50 in assay [4] was 0.074 µM.

In the case of `CSCC[C@H](NC(=O)[C@H](Cc1ccccc1)NC(=O)CNC(=O)CNC(=O)[C@@H](N)Cc1ccc(O)cc1)C(N)=O`, in assay [1], the Ki turned out to be 0.21 µM.

With `CC(C)C[C@@H](NC(=O)[C@H](Cc1ccccc1)NC(=O)CNC(=O)[C@@H](C)NC(=O)[C@@H](N)Cc1cc[n+]([O-])cc1)C(=O)O`, the Ki in assay [2], in assay [3] and in assay [1] was over 10 µM in each case.

With `Cc1cc(C(N)=O)cc(C)c1C[C@H](N)C(=O)N[C@H](C)C(=O)NCC(=O)N[C@@H](Cc1ccccc1)C(=O)N[C@H](CC(C)C)C(=O)O`, the values for the Ki in assay [2], in assay [3] and in assay [1] were 0.0098 µM, 0.00078 µM and 2.4 µM, respectively. Moreover, the EC50 was 0.049 µM in assay [5] and 0.0025 µM in assay [4].

Regarding `Cc1cc(C(N)=O)cc(C)c1C[C@H](N)C(=O)N[C@H](CO)C(=O)NCC(=O)N[C@@H](Cc1ccccc1)C(=O)N[C@@H](CC(C)C)C(=O)N[C@H](C(=O)O)[C@@H](C)O`, the Ki was 0.019 µM in assay [2], 0.0012 µM in assay [3] and over 10 µM in assay [1]. For the same compound, the EC50 was 0.25 µM in assay [5] and 0.0035 µM in assay [4].

As for `CC(C)C[C@H](NC(=O)[C@H](Cc1ccccc1)NC(=O)CNC(=O)[C@@H](CO)NC(=O)[C@@H](N)Cc1cccc(C(N)=O)c1)C(=O)N[C@H](C(=O)O)[C@@H](C)O`, the Ki in assay [2] was 1.1 µM; in assay [3], 0.042 µM; in assay [1] it was over 10 µM. In assay [4], this compound had an EC50 of 0.73 µM.

Regarding `CC(C)C[C@H](NC(=O)[C@H](Cc1ccccc1)NC(=O)CNC(=O)CNC(=O)[C@@H](N)Cc1ccc2nc(N)sc2c1)C(=O)O` (H-[Ala(2-NH2-benzothiazol-6-yl)]GGFL-OH), the Ki in assay [2] was 1.2 µM; in assay [3] it was 0.019 µM; in assay [1], over 10 µM. Further, the EC50 in assay [4] stood at 0.58 µM.

As for `Cc1cc(C(N)=O)cc(C)c1C[C@H](N)C(=O)NCC(=O)NCC(=O)N[C@@H](Cc1ccccc1)C(=O)N[C@@H](CC(C)C)C(=O)O` (H-[Phe(2,6-Me2,4-CONH2)]GGFL-OH), the inhibitory constant (Ki) was 0.0098 µM in assay [2], 0.001 µM in assay [3] and 1.3 µM in assay [1]. Further, the EC50 in assay [5] was 0.18 µM; in assay [4], 0.0041 µM.

On to `CC(C)C[C@H](NC(=O)[C@H](Cc1ccccc1)NC(=O)CNC(=O)CNC(=O)[C@@H](N)Cc1cccc(C(N)=O)c1)C(=O)O` (H-[Phe(3-CONH2)]GGFL-OH), for which the Ki was over 10 µM in assay [2], 0.475 µM in assay [3] and over 10 µM in assay [1].

On to `CSCC[C@H](NC(=O)[C@H](Cc1ccccc1)NC(=O)CNC(=O)CNC(=O)[C@@H](N)Cc1ccc(C(N)=O)cc1)C(N)=O` (H-[Phe(4-CONH2)]GGFM-NH2), for which the inhibition constant Ki is 0.018 µM in assay [2], 0.0013 µM in assay [3] and 0.46 µM in assay [1]. Further, the EC50 in assay [5] worked out at 0.27 µM; in assay [4] it was 0.01 µM.

Consider `CSCC[C@H](NC(=O)[C@H](Cc1ccccc1)NC(=O)CNC(=O)CNC(=O)[C@@H](N)Cc1ccc(C(N)=O)cc1)C(=O)O` (H-[Phe(4-CONH2)]GGFM-OH), for which the Ki in assay [2] came out at 0.028 µM; in assay [3], 0.0018 µM; in assay [1], 1.03 µM. Besides, the EC50 was determined as 0.14 µM in assay [5] and 0.0052 µM in assay [4].

On to `CC(C)C[C@H](NC(=O)[C@H](Cc1ccccc1)NC(=O)CNC(=O)CNC(=O)[C@@H](N)Cc1cc[n+]([O-])cc1)C(=O)O` (H-[X1]GGFL-OH), for which the Ki in assay [2], in assay [3] and in assay [1] was over 10 µM throughout.
